Test results published in publication PMC9481563, “Structural insights into the pSer/pThr dependent regulation of the SHP2 tyrosine phosphatase in insulin and CD28 signaling” (Nature Communications, 2022).

What was measured:
[1] = molecular target: T1, PTPRε first phosphatase domain, C335S (Homo sapiens, UniProt P23469, C335S); assay: biochemical; assay type: binding; details: competitive FP titration vs CF-ppIRS1 100 nM, protein fixed, unlabelled peptide varied; n = 3 technical replicates
T1 construct: PTPRε (P23469 first domain: 107–399); MBP; made in house; host or cells: E. coli BL21 (DE3)
T1 sequence (P23469 107-399 C335S): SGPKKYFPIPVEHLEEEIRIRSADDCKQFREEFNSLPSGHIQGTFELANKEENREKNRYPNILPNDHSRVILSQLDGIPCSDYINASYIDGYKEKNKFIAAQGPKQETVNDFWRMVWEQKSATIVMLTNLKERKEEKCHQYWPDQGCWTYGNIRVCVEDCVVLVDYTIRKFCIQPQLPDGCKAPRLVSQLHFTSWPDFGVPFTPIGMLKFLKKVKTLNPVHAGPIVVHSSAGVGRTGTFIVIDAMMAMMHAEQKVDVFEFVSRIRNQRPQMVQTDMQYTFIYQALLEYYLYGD
Text: The two SH2 domains of PI3KR1 (UniProt P27986; nSH2: 321−433 cSH2: 614–724) were cloned from HEK293T cDNA pool, and subsequently ligated into a modified pET vector encoding maltose binding protein (MBP) tag on the N-terminal and a hexa-His tag on the C-terminal end of the construct. Similarly, the catalytic, tyrosine phosphatase domains of PTPRε (P23469 first domain: 107–399) and PTP1B (P18031; 1–229) were cloned from a HEK293T cDNA pool, and inserted into a pBH4 vector encoding an N-terminal His6 tag (for the final binding experiments, an MBP-tagged version of PTPRε was employed). […] Wild-type C-terminal FLAG-tagged human IRS1 was cloned between HindIII-NotI sites of pcDNA3.1(+) vector (#V79020 Invitrogen, Waltham MA USA). Ser/Ala mutant IRS1 was generated by replacing the region of S616/S636/S666/S736 positions with a cassette carrying S616A/S636A/S666A/S736A mutations. All constructs were validated by complete Sanger sequencing before protein expression and purification. The oligonucleotide sequences used are shown on Supplementary table 4.
Fluorescence polarization was always measured in triplicates, on black Corning low volume round bottom 384-well plates (with 10 ul volumes), using a BioTek Cytatation 5 reader, with the green fluorescent protein (GFP) cube filter set (ex: 485/20, em: 528/20, gain: 50, height: 7.5). Fluorescence polarization data was evaluated on Origin 2018. The dissociation constants (Kd) were determined by using the appropriate quadratic and cubic equations inserted as a user-defined function and applying nonlinear fit until convergence. The fitting formulae are shown at Supplementary note 1. Kd ratio distributions for Fig. 6 were calculated using a Monte-Carlo approach (Supplementary note 2).
(§1) Supplementary note 1. Curve fitting of fluorescence polarization (FP) measurements.
(§2) To evaluate polarization values from direct and competitive titrations, we used the following fitting formulae in Origin 2018, as detailed below.
(§3) Direct titration curves were fitted according to the following formula: […]
(§4) Where Imin is the minimal anisotropy, Imax is the (asymptotically estimated) maximal intensity. K0 is the starting concentration of the protein, while T0 is the (fixed) concentration of the labelled peptide and Kd is the dissociation constant.
(§5) Competitive titration curves were fitted with a different formula (In addition to those defined above, constants KdT KdB B0 T0 and D0 here refer to the Kd derived from the direct titration, the unknown Kd of the analyte, the labelled peptide concentration, the competitor peptide concentration as well as the protein concentration, respectively).
(§6) The ± sign refers to two different scenarios, depending on the sign of discriminant (KdT > KdB or […]). For unknown analytes, the choice of sign is not arbitrary, as the fitting will not converge unless the appropriate formula is chosen: […]
(§7) Where A, B and C correspond to the following expressions: […]

[2] = molecular target: T2, inactive SHP2 catalytic domain Loopinv (R362E) (Homo sapiens, UniProt Q06124, C459S/R362E); assay: Fluorescence polarization titrations, SHP2 Loopinv; assay type: binding; details: competitive FP titration vs CF-ppIRS1 100 nM, protein fixed; n = 3 technical replicates
T2 construct: SHP2 R362E (Loopinv); 219-528 + C459S; His6 (N); made in house; host or cells: E. coli BL21 (DE3)
T2 sequence (Q06124 219-528 R362E/C459S): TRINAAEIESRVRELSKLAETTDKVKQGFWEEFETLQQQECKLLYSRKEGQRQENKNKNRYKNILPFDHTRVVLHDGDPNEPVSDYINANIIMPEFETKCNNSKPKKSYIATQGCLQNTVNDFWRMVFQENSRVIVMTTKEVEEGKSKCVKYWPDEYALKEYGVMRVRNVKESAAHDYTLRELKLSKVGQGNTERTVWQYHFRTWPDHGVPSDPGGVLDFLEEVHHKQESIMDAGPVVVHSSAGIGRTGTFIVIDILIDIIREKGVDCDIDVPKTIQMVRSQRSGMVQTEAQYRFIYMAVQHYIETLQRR
Text: The two SH2 domains of PI3KR1 (UniProt P27986; nSH2: 321−433 cSH2: 614–724) were cloned from HEK293T cDNA pool, and subsequently ligated into a modified pET vector encoding maltose binding protein (MBP) tag on the N-terminal and a hexa-His tag on the C-terminal end of the construct. Similarly, the catalytic, tyrosine phosphatase domains of PTPRε (P23469 first domain: 107–399) and PTP1B (P18031; 1–229) were cloned from a HEK293T cDNA pool, and inserted into a pBH4 vector encoding an N-terminal His6 tag (for the final binding experiments, an MBP-tagged version of PTPRε was employed). […] Surface mutants of SHP2 were constructed from the SHP2-C459S plasmid, using the QuickChange protocol. The D425A and H426A catalytic site mutants and all enzymatically active surface mutants were generated similarly, but from the plasmid encoding the wild-type catalytic domain of SHP2. Wild-type C-terminal FLAG-tagged human IRS1 was cloned between HindIII-NotI sites of pcDNA3.1(+) vector (#V79020 Invitrogen, Waltham MA USA). Ser/Ala mutant IRS1 was generated by replacing the region of S616/S636/S666/S736 positions with a cassette carrying S616A/S636A/S666A/S736A mutations. All constructs were validated by complete Sanger sequencing before protein expression and purification. The oligonucleotide sequences used are shown on Supplementary table 4.
Fluorescence polarization (FP) assays were performed as follows: In direct titration experiments, protein concentration was varied in an 1/2 or 2/3 dilution series (90 µl protein+ 45 µl mix), while concentration of the reporter peptide (CF-ppIRS1) was kept constant at 100 nM. In competitive titrations, the labelled CF-ppIRS1 peptide and protein were both fixed (at 50–80% saturation) and the unlabelled competitor peptide concentration was varied. Fluorescence polarization was always measured in triplicates, on black Corning low volume round bottom 384-well plates (with 10 ul volumes), using a BioTek Cytatation 5 reader, with the green fluorescent protein (GFP) cube filter set (ex: 485/20, em: 528/20, gain: 50, height: 7.5). Fluorescence polarization data was evaluated on Origin 2018. The dissociation constants (Kd) were determined by using the appropriate quadratic and cubic equations inserted as a user-defined function and applying nonlinear fit until convergence. The fitting formulae are shown at Supplementary note 1. Kd ratio distributions for Fig. 6 were calculated using a Monte-Carlo approach (Supplementary note 2).
as §1, §2, §3, §4, §5, §6, §7

Structure (SMILES)	Kd [1] [µM]	Kd [2] [µM]
CSCC[C@H](NC(=O)[C@H](Cc1ccc(OP(=O)(O)O)cc1)NC(=O)[C@H](CC(=O)O)NC(=O)[C@H](CO)NC(=O)[C@H](Cc1c[nH]cn1)NC(=O)[C@H](CC(C)C)NC(=O)[C@H](CC(C)C)NC(=O)[C@H](CCCNC(=N)N)NC(=O)[C@H](CO)NC(=O)[C@@H](N)CCCNC(=N)N)C(=O)N[C@@H](CC(N)=O)C(=O)N[C@@H](CCSC)C(=O)N[C@H](C(=O)N1CCC[C@H]1C(=O)N[C@@H](CCCNC(=N)N)C(=O)N[C@@H](CCCNC(=N)N)C(=O)O)[C@@H](C)O [p0CD28]	1.18 ± 0.1	45.7 ± 7.49
CSCC[C@H](NC(=O)[C@@H]1CCCN1C(=O)[C@H](CCSC)NC(=O)[C@H](Cc1ccc(OP(=O)(O)O)cc1)NC(=O)[C@H](CC(=O)O)NC(=O)CNC(=O)[C@H](CO)NC(=O)CNC(=O)[C@H](CCCCN)NC(=O)[C@H](CCCNC(=N)N)NC(=O)CN)C(=O)N[C@@H](CO)C(=O)N1CCC[C@H]1C(=O)N[C@@H](CCCCN)C(=O)N[C@@H](CO)C(=O)O [p0IRS1]	36 ± 2.44	61.8 ± 16.2
CC[C@H](C)[C@H](NC(=O)[C@H](CC(N)=O)NC(=O)[C@@H](NC(=O)[C@H](Cc1ccc(OP(=O)(O)O)cc1)NC(=O)[C@H](CCC(=O)O)NC(=O)CNC(=O)[C@@H]1CCCN1C(=O)[C@H](CO)NC(=O)[C@H](CCCCN)NC(=O)[C@@H]1CCCN1C(=O)[C@@H](N)CCC(=O)O)C(C)C)C(=O)N[C@@H](CCC(=O)O)C(=O)N[C@@H](Cc1ccccc1)C(=O)O [p0SRev-IRS1]		9.35 ± 1.54
CSCC[C@H](NC(=O)[C@H](Cc1ccc(OP(=O)(O)O)cc1)NC(=O)[C@H](CC(=O)O)NC(=O)[C@H](CO)NC(=O)[C@H](Cc1c[nH]cn1)NC(=O)[C@H](CC(C)C)NC(=O)[C@H](CC(C)C)NC(=O)[C@H](CCCNC(=N)N)NC(=O)[C@H](CO)NC(=O)[C@@H](N)CCCNC(=N)N)C(=O)N[C@@H](CC(N)=O)C(=O)N[C@@H](CCSC)C(=O)N[C@H](C(=O)N1CCC[C@H]1C(=O)N[C@@H](CCCNC(=N)N)C(=O)N[C@@H](CCCNC(=N)N)C(=O)O)[C@@H](C)OP(=O)(O)O [ppCD28]	1.24 ± 0.08	15.2 ± 0.49
CSCC[C@H](NC(=O)[C@@H]1CCCN1C(=O)[C@H](CCSC)NC(=O)[C@H](Cc1ccc(OP(=O)(O)O)cc1)NC(=O)[C@H](CC(=O)O)NC(=O)CNC(=O)[C@H](CO)NC(=O)CNC(=O)[C@H](CCCCN)NC(=O)[C@H](CCCNC(=N)N)NC(=O)CN)C(=O)N[C@@H](COP(=O)(O)O)C(=O)N1CCC[C@H]1C(=O)N[C@@H](CCCCN)C(=O)N[C@@H](CO)C(=O)O [ppIRS1]	16.5 ± 1.7	7.53 ± 1.1
CC[C@H](C)[C@H](NC(=O)[C@H](CC(N)=O)NC(=O)[C@@H](NC(=O)[C@H](Cc1ccc(OP(=O)(O)O)cc1)NC(=O)[C@H](CCC(=O)O)NC(=O)CNC(=O)[C@@H]1CCCN1C(=O)[C@H](COP(=O)(O)O)NC(=O)[C@H](CCCCN)NC(=O)[C@@H]1CCCN1C(=O)[C@@H](N)CCC(=O)O)C(C)C)C(=O)N[C@@H](CCC(=O)O)C(=O)N[C@@H](Cc1ccccc1)C(=O)O [ppSRev-IRS1]		0.67 ± 0.16
